≈ marks a conversion by molar mass, not a printed value. Where “and” joins values, the source holds several entries; their conditions need not be identical. Equal entries are not always repeated. Square brackets hold non-standard residues; d marks the D form. Ends that are not written are not given here. Peptide text beside a SMILES is read from it.
Columns and labels:
S. aureus (ATCC 25923) = assay: Anti-microbial assay (CFU survival, EC50) against S. aureus; format: cell-based, Staphylococcus aureus; conditions: for EC50 against S. aureus, preliminary studies: Example 4, FIG. 10
Procedure: S. aureus (ATCC 25923, American Type Culture Collection, Manassas, Va.) was grown in Nutrient Broth (Difco Laboratories, Detroit, Mich.) at pH 7, 37° C., for 24 hours with shaking at 200 rpm. The overnight culture was frozen with 20% glycerol and stored at −80° C. The frozen stock was enumerated (CFU/ml) by dilution plating and growth on Nutrient Agar plates.
For anti-microbial assays, frozen enumerated aliquots were thawed and gently mixed immediately before use. […] Negative control wells contained bacteria with no peptide. […] The EC50 was calculated as previously described (de Latour et al., supra).
Errors were reported based on the standard deviation from the mean of the log10 EC50 values (Gordon et al., supra). 95% confidence intervals were used to determine whether points were statistically different at p=0.05.

S. aureus biofilm = assay: Biofilm production (crystal violet) and growth (OD600) of S. aureus in TSB; format: cell-based, Staphylococcus aureus
Procedure: Biofilm production was measured as previously described (Durham-Colleran et al., supra) with the following modifications. […] The positive control was S. aureus in TSB with no peptide. Six wells were used for each peptide concentration (n=6). After 24 hours, the optical densities (OD) of the wells were taken at 600 nm to quantify […]. The biofilm production was measured using the crystal violet stain technique (Durham-Colleran et al., supra). All experiments were repeated at least twice.

E. coli (ATCC 25922) = assay: Anti-microbial performance against E. coli, with and without FICOLL 70; format: cell-based, Escherichia coli; conditions: for Average EC50, E. coli: unit inferred; for fold increase in potency against E. coli: 20% FICOLL 70 versus none; for Anti-microbial performance of ATRA-1A isomers (EC50) E coli (ATCC 25922): Example 5, Table 9
Procedure: In these assays, bacteria (1×10^5 CFU/ml) were incubated for 3 hours at 37° C. with varied concentrations of peptide in 10 mM phosphate buffer (pH 7.4) containing 0 to 30% FICOLL™ 70. The potencies of the peptide isomers were determined by plotting bacterial survival (%) as a function of log peptide concentration and fitting the data to a standard dose response equation. Each experiment was conducted at least three times, with the exception of experiments with 15% and 30% FICOLL™, which were only performed once.

P. aeruginosa biofilm [1] = assay: Biofilm production (crystal violet) and growth (OD600) of P. aeruginosa in TSB; format: cell-based, Pseudomonas aeruginosa
Procedure: Biofilm production was measured as previously described (Durham-Colleran et al. (2010) Microb. Ecol., 59(3):457-465) with the following modifications. P. aeruginosa (1×10^5 CFU) in 200 μl of TSB media (Trypticase Soy Broth) was incubated with peptide at concentrations of 1.0, 0.1, and 0.01 μg/ml for 24 hours at 37° C. (Table 2). Optical density of the cultures (OD600 nm) at 24 hours was determined prior to staining as a measure of bacterial growth. Six wells were used for each peptide concentration (n=6). Biofilm production was measured using the crystal violet stain technique (Durham-Colleran et al., supra).

[2] = test system: P. aeruginosa (ATCC 19429); assay: Anti-microbial assay (CFU survival, EC50) against P. aeruginosa; format: cell-based, Pseudomonas aeruginosa; conditions: Example 6, FIG. 16; unit not given
Procedure: P. aeruginosa (ATCC 19429, American Type Culture Collection, Manassas, Va.) was grown in Nutrient Broth (Difco Laboratories, Detroit, Mich.) at 37° C. for 24 hours with shaking at 200 rpm. The CFU/ml was determined by growth on Nutrient Agar plates. For anti-microbial assays, frozen enumerated aliquots were thawed immediately before use.
Each experiment was repeated at least twice, and a representative experiment is shown, for clarity.

C. albicans (ATCC 14053) = assay: Anti-microbial assay (CFU survival, EC50) against C. albicans; format: cell-based, Candida albicans; conditions: for EC50 against C. albicans: 3 hours, 37° C., 10 mM sodium phosphate pH 7.4, inconsistent colony growth; for Inhibition of C. albicans: at 500 and 100 μg; for EC50: converted with molecular weight
Procedure: C. albicans (ATCC 14053) was grown up in 25 mL of Sabouraud Dextrose (SO) broth for 48 hours at 25° C., after which samples were aliquoted into 2 mL microcentrifuge tubes at 0.5 mL.
On a 96-well plate, 1×10^4 CFU per well of C. albicans were incubated with different peptide concentrations (in serial dilutions of 1:10 and 1:5) starting with […] in a solution of buffer containing 10 mM sodium phosphate at pH 7.4 (3 hours, 37° C.). Serial dilutions were then carried out in 1× Dulbecco's PBS, and samples were plated in triplicate on Sabouraud Dextrose Agar plates, incubated (25° C., 48 hours) and CFUs were counted. C. albicans survival at each peptide concentration was calculated as previously described (Amer et al., supra; de Latour et al., supra), based on the percentage of the number of colonies in each experimental plate relative to the average number of colonies observed for assay cultures lacking peptide. […] In the equation, “Top” and “Bottom” refer to the upper and lower boundaries, and were constrained to values <100% and >0%, respectively. For graphing purposes, samples that had no peptide were plotted at 10^−9 μg/ml peptide. EC50 values were determined by fitting the data from the anti-microbial assays to a standard sigmoidal dose-response curve. Errors were reported based on the standard deviation from the mean of the log EC50 values. 2. Results

B. cereus (ATCC 11778) = assay: Anti-microbial performance against B. cereus, with and without FICOLL 70; format: cell-based; conditions: for fold increase in potency against B. cereus: 20% FICOLL 70 versus none
A. baumannii = conditions: Example 5, Table 9
Procedure: Anti-microbial activity was determined for each peptide isomer by enumerating the number of viable colony forming units after incubating bacteria in media containing varied concentrations of peptide.

P. aeruginosa = assay: Galleria mellonella infection by P. aeruginosa with AMP and antibiotic treatments; format: in vivo; conditions: single dose: 5 μg ciprofloxacin or 10 μg peptide
Procedure: Galleria mellonella (wax moth caterpillars) were obtained from Vanderhorst Wholesale (Saint Marys, Ohio). Eight to twelve caterpillars of equal size/weight were randomly assigned to each group. A 1 mL tuberculin syringe was used to inject 10 μl of 1×10^3 CFU/ml of P. aeruginosa into each caterpillar via the last left proleg. […] Caterpillar control groups included: injected with only PBS, ciprofloxacin, or AMPs. The insects were then observed daily for their survival status.

S. aureus = assay: Biofilm attachment assay; format: cell-based, Staphylococcus aureus; conditions: 1 μg/ml peptide, 1 hour, 37° C.
Procedure: Biofilm attachment assays were performed in 96-well microtiter plates (BD Falcon 353072) as previously described (Overhage et al., supra). Overnight cultures of S. aureus were grown in TSB to an OD600 of about 1.0. […] The plates were incubated (1 hour, 37° C.) to allow the S. aureus to adhere to the wells. The wells were washed and OD600 measurements were taken, as in the biofilm production experiments, and the average absorbance for each treatment was determined (n=16).

P. aeruginosa biofilm [3] = conditions: Overhage et al.; cited from earlier work

CC(C)C[C@@H](NC(=O)[C@@H](CCCCN)NC(=O)[C@@H](CCCCN)NC(=O)[C@@H](Cc1ccccc1)NC(=O)[C@@H](Cc1ccccc1)NC(=O)[C@@H](CCCCN)NC(=O)[C@@H](CCCCN)NC(=O)[C@@H](C)NC(=O)[C@@H](CCCNC(=N)N)NC(=O)[C@H](N)CCCCN)C(=O)N[C@H](CCCCN)C(N)=O [D-ATRA-1A] (H-[dK][dR][dA][dK][dK][dF][dF][dK][dK][dL][dK]-NH2; N-terminus assumed)
fold difference in activities of L- and D-ATRA-1A against S. aureus (S. aureus (ATCC 25923); D less effective than L): 30 fold
EC50 against S. aureus, preliminary studies (S. aureus (ATCC 25923)): 6.97 µg/mL (≈ 4.91 µM)
EC50 against S. aureus, two best data sets (S. aureus (ATCC 25923); Example 6, FIGS. 14 and 15, left and right panels): 26.53 µg/mL and 25.02 µg/mL
inhibiting biofilm growth, D- versus L-ATRA-1A (S. aureus biofilm; 1 μg/ml, FIG. 20): more effective at inhibiting biofilm growth
Average EC50, E. coli (E. coli (ATCC 25922); 0% FICOLL 70): 1.3 µg/mL
Average EC50, E. coli (E. coli (ATCC 25922); 5% FICOLL 70): 0.71 µg/mL
Average EC50, E. coli (E. coli (ATCC 25922); 10% FICOLL 70): 0.24 µg/mL
Average EC50, E. coli (E. coli (ATCC 25922); 15% FICOLL 70, performed once): 0.1 µg/mL
Average EC50, E. coli (E. coli (ATCC 25922); 20% FICOLL 70): 0.085 µg/mL
fold increase in potency against E. coli (E. coli (ATCC 25922)): 13.66 fold
Average EC50, E. coli (E. coli (ATCC 25922); 30% FICOLL 70, performed once): 0.01 µg/mL
Anti-microbial performance of ATRA-1A isomers (EC50) E coli (ATCC 25922) (E. coli (ATCC 25922)): 1.302 µg/mL
EC50 with 20% FICOLL 70, E. coli (E. coli (ATCC 25922)): 0.0850 µg/mL
EC50 without FICOLL 70, E. coli (E. coli (ATCC 25922)): 1.302 µg/mL
inhibiting biofilm growth, D- versus L-ATRA-1A (P. aeruginosa biofilm [1]; 1 μg/ml, FIG. 20): more effective at inhibiting biofilm growth
average EC50 against P. aeruginosa [2]: 9.643 (CI 6.5 to 14.2)
EC50 against C. albicans (C. albicans (ATCC 14053)): 22.10 µg/mL (≈ 15.6 µM)
Inhibition of C. albicans (C. albicans (ATCC 14053)): consistently seen
EC50 (C. albicans (ATCC 14053)): 15.6 µM
fold increase in potency against B. cereus (B. cereus (ATCC 11778)): 54.34 fold
EC50 with 20% FICOLL 70, B. cereus (B. cereus (ATCC 11778)): 0.0406 µg/mL
EC50 without FICOLL 70, B. cereus (B. cereus (ATCC 11778)): 2.330 µg/mL
Anti-microbial performance of ATRA-1A isomers (EC50) A. baumannii (A. baumannii): 9.73 µg/mL

O=C(O)c1cn(C2CC2)c2cc(N3CCNCC3)c(F)cc2c1=O [ciprofloxacin]
effect on survival of infected G. mellonella (P. aeruginosa): effective
survival of P. aeruginosa-infected G. mellonella (P. aeruginosa; 1×10^3 CFU): 55%

GLKLRFEFSKIKGEFLKTPEVRFRDIKLKDNRISVQR [Scrambled LL-37, reference compound]
inhibition of biofilm formation (S. aureus biofilm; TSB, concentrations without anti-microbial activity): no inhibition of biofilm formation
inhibition of biofilm formation (P. aeruginosa biofilm [1]; TSB, any concentration tested (up to 1 μg/ml)): no inhibition of biofilm formation
attachment of S. aureus to polystyrene wells (S. aureus): did not decrease

GLLRKGGEKIGEKLKKIGQKIKNFFQKLVPQPEQ [mCRAMP]
inhibitory effect on biofilm formation, previously known (P. aeruginosa biofilm [3]): no inhibitory effect

KRAKKFFKKLK-NH2 [ATRA-1A]
EC50 of AMPs against S. aureus (S. aureus (ATCC 25923); 3 hours, 37° C., 10 mM sodium phosphate pH 7.4, ± standard deviation): 1.45 ± 1.5 µg/mL
EC50 against S. aureus, preliminary studies (S. aureus (ATCC 25923)): 0.27 µg/mL
Anti-microbial performance of ATRA-1A isomers (EC50) S. aureus (S. aureus (ATCC 25923); Example 5, Table 9): 1.45 µg/mL
EC50 (S. aureus (ATCC 25923); converted from μg/ml with molecular weight of TFA salt): 0.62 µM
Average EC50, E. coli (E. coli (ATCC 25922); 0% FICOLL 70): 2.9 µg/mL
Average EC50, E. coli (E. coli (ATCC 25922); 5% FICOLL 70): 1.6 µg/mL
Average EC50, E. coli (E. coli (ATCC 25922); 10% FICOLL 70): 0.86 µg/mL
Average EC50, E. coli (E. coli (ATCC 25922); 15% FICOLL 70, performed once): 0.64 µg/mL
Average EC50, E. coli (E. coli (ATCC 25922); 20% FICOLL 70): 0.42 µg/mL
fold increase in potency against E. coli (E. coli (ATCC 25922)): 10.66 fold
Average EC50, E. coli (E. coli (ATCC 25922); 30% FICOLL 70, performed once): 0.29 µg/mL
Anti-microbial performance of ATRA-1A isomers (EC50) E coli (ATCC 25922) (E. coli (ATCC 25922)): 4.323 µg/mL
EC50 with 20% FICOLL 70, E. coli (E. coli (ATCC 25922)): 0.420 µg/mL
EC50 without FICOLL 70, E. coli (E. coli (ATCC 25922)): 4.232 µg/mL
average EC50 against P. aeruginosa [2]: 14.22 (CI 10.4 to 19.4)
EC50 against C. albicans (C. albicans (ATCC 14053)): 33.38 µg/mL
Inhibition of C. albicans (C. albicans (ATCC 14053)): consistently seen
EC50 (C. albicans (ATCC 14053)): 23.5 µM
fold increase in potency against B. cereus (B. cereus (ATCC 11778)): 14 fold
EC50 with 20% FICOLL 70, B. cereus (B. cereus (ATCC 11778)): 5.207 µg/mL
EC50 without FICOLL 70, B. cereus (B. cereus (ATCC 11778)): 72.41 µg/mL
Anti-microbial performance of ATRA-1A isomers (EC50) A. baumannii (A. baumannii): 53.25 µg/mL

From patent US10174081B2, “Antimicrobial peptides and uses therefore” (priority 2011, dated 2019)
